Reference: the supplement of paper PMC8882468

Each compound was assayed on HCI-023 (organoid from a triple-negative breast cancer xenograft) (assay: CTG-3D luminescence at 96 h relative to day-0 seeding control (ratio to day 0); higher = more growth / less cytotoxicity; PDxO 3D drug screen (set 2), 96 h, CTG-3D normalised to day-0 seeding control.). Details: 10 µM; days in culture: 238.

Row | Structure (SMILES) | CTG-3D luminescence at 96 h
1 | CCOc1ccn(-c2ccc(F)cc2)c(=O)c1C(=O)Nc1ccc(Oc2ccnc(N)c2Cl)c(F)c1 [ASLAN002] | 1.05
2 | C[C@@H](Nc1cc(F)cc(F)c1)c1cc(C(=O)N(C)C)cc2c(=O)cc(N3CCOCC3)oc12 [AZD-8186] | 1.3
3 | COc1cccc2c1C(=O)c1c(O)c3c(c(O)c1C2=O)C[C@@](O)(C(=O)CO)C[C@@H]3O[C@H]1C[C@H](N)[C@@H](O)[C@H](C)O1 [epirubicin] | 0.0393
4 | CC(=O)c1c(C)c2cnc(Nc3ccc(N4CCNCC4)cn3)nc2n(C2CCCC2)c1=O [palbociclib] | 1.53
5 | O=C(c1cc(Cc2n[nH]c(=O)c3ccccc23)ccc1F)N1CCN(C(=O)C2CC2)CC1 [olaparib] | 1.41

Same assay, conditions: 10 µM; days in culture: 252

Row | Structure (SMILES) | CTG-3D luminescence at 96 h
6 | CCOc1ccn(-c2ccc(F)cc2)c(=O)c1C(=O)Nc1ccc(Oc2ccnc(N)c2Cl)c(F)c1 [ASLAN002] | 1.47
7 | C[C@@H](Nc1cc(F)cc(F)c1)c1cc(C(=O)N(C)C)cc2c(=O)cc(N3CCOCC3)oc12 [AZD-8186] | 2.09
8 | COc1cccc2c1C(=O)c1c(O)c3c(c(O)c1C2=O)C[C@@](O)(C(=O)CO)C[C@@H]3O[C@H]1C[C@H](N)[C@@H](O)[C@H](C)O1 [epirubicin] | 0.0524
9 | CC(=O)c1c(C)c2cnc(Nc3ccc(N4CCNCC4)cn3)nc2n(C2CCCC2)c1=O [palbociclib] | 1.92
10 | O=C(c1cc(Cc2n[nH]c(=O)c3ccccc23)ccc1F)N1CCN(C(=O)C2CC2)CC1 [olaparib] | 1.86

Same assay, conditions: 100 µM; days in culture: 223

Row | Structure (SMILES) | CTG-3D luminescence at 96 h
11 | CCOc1ccn(-c2ccc(F)cc2)c(=O)c1C(=O)Nc1ccc(Oc2ccnc(N)c2Cl)c(F)c1 [ASLAN002] | 1.03
12 | C[C@@H](Nc1cc(F)cc(F)c1)c1cc(C(=O)N(C)C)cc2c(=O)cc(N3CCOCC3)oc12 [AZD-8186] | 1.14
13 | COc1cccc2c1C(=O)c1c(O)c3c(c(O)c1C2=O)C[C@@](O)(C(=O)CO)C[C@@H]3O[C@H]1C[C@H](N)[C@@H](O)[C@H](C)O1 [epirubicin] | -0.00401
14 | CC(=O)c1c(C)c2cnc(Nc3ccc(N4CCNCC4)cn3)nc2n(C2CCCC2)c1=O [palbociclib] | 1.04
15 | O=C(c1cc(Cc2n[nH]c(=O)c3ccccc23)ccc1F)N1CCN(C(=O)C2CC2)CC1 [olaparib] | 0.879

Same assay, conditions: 100 µM; days in culture: 238

Row | Structure (SMILES) | CTG-3D luminescence at 96 h
16 | CCOc1ccn(-c2ccc(F)cc2)c(=O)c1C(=O)Nc1ccc(Oc2ccnc(N)c2Cl)c(F)c1 [ASLAN002] | 0.917
17 | C[C@@H](Nc1cc(F)cc(F)c1)c1cc(C(=O)N(C)C)cc2c(=O)cc(N3CCOCC3)oc12 [AZD-8186] | 1.05
18 | COc1cccc2c1C(=O)c1c(O)c3c(c(O)c1C2=O)C[C@@](O)(C(=O)CO)C[C@@H]3O[C@H]1C[C@H](N)[C@@H](O)[C@H](C)O1 [epirubicin] | -0.00422
19 | CC(=O)c1c(C)c2cnc(Nc3ccc(N4CCNCC4)cn3)nc2n(C2CCCC2)c1=O [palbociclib] | 0.908
20 | O=C(c1cc(Cc2n[nH]c(=O)c3ccccc23)ccc1F)N1CCN(C(=O)C2CC2)CC1 [olaparib] | 0.856

Same assay, conditions: 100 µM; days in culture: 252

Row | Structure (SMILES) | CTG-3D luminescence at 96 h
21 | CCOc1ccn(-c2ccc(F)cc2)c(=O)c1C(=O)Nc1ccc(Oc2ccnc(N)c2Cl)c(F)c1 [ASLAN002] | 1.15
22 | C[C@@H](Nc1cc(F)cc(F)c1)c1cc(C(=O)N(C)C)cc2c(=O)cc(N3CCOCC3)oc12 [AZD-8186] | 1.5
23 | COc1cccc2c1C(=O)c1c(O)c3c(c(O)c1C2=O)C[C@@](O)(C(=O)CO)C[C@@H]3O[C@H]1C[C@H](N)[C@@H](O)[C@H](C)O1 [epirubicin] | -0.00328
24 | CC(=O)c1c(C)c2cnc(Nc3ccc(N4CCNCC4)cn3)nc2n(C2CCCC2)c1=O [palbociclib] | 1.35
25 | O=C(c1cc(Cc2n[nH]c(=O)c3ccccc23)ccc1F)N1CCN(C(=O)C2CC2)CC1 [olaparib] | 1.59

Same assay, conditions: 625 fM; days in culture: 223

Row | Structure (SMILES) | CTG-3D luminescence at 96 h
26 | CCOc1ccn(-c2ccc(F)cc2)c(=O)c1C(=O)Nc1ccc(Oc2ccnc(N)c2Cl)c(F)c1 [ASLAN002] | 1.61
27 | C[C@@H](Nc1cc(F)cc(F)c1)c1cc(C(=O)N(C)C)cc2c(=O)cc(N3CCOCC3)oc12 [AZD-8186] | 1.74
28 | COc1cccc2c1C(=O)c1c(O)c3c(c(O)c1C2=O)C[C@@](O)(C(=O)CO)C[C@@H]3O[C@H]1C[C@H](N)[C@@H](O)[C@H](C)O1 [epirubicin] | 2.21
29 | CC(=O)c1c(C)c2cnc(Nc3ccc(N4CCNCC4)cn3)nc2n(C2CCCC2)c1=O [palbociclib] | 1.86
30 | O=C(c1cc(Cc2n[nH]c(=O)c3ccccc23)ccc1F)N1CCN(C(=O)C2CC2)CC1 [olaparib] | 1.75

Same assay, conditions: 625 fM; days in culture: 238

Row | Structure (SMILES) | CTG-3D luminescence at 96 h
31 | CCOc1ccn(-c2ccc(F)cc2)c(=O)c1C(=O)Nc1ccc(Oc2ccnc(N)c2Cl)c(F)c1 [ASLAN002] | 1.58
32 | C[C@@H](Nc1cc(F)cc(F)c1)c1cc(C(=O)N(C)C)cc2c(=O)cc(N3CCOCC3)oc12 [AZD-8186] | 1.54
33 | COc1cccc2c1C(=O)c1c(O)c3c(c(O)c1C2=O)C[C@@](O)(C(=O)CO)C[C@@H]3O[C@H]1C[C@H](N)[C@@H](O)[C@H](C)O1 [epirubicin] | 1.61
34 | CC(=O)c1c(C)c2cnc(Nc3ccc(N4CCNCC4)cn3)nc2n(C2CCCC2)c1=O [palbociclib] | 1.59
35 | O=C(c1cc(Cc2n[nH]c(=O)c3ccccc23)ccc1F)N1CCN(C(=O)C2CC2)CC1 [olaparib] | 1.72

Same assay, conditions: 625 fM; days in culture: 252

Row | Structure (SMILES) | CTG-3D luminescence at 96 h
36 | CCOc1ccn(-c2ccc(F)cc2)c(=O)c1C(=O)Nc1ccc(Oc2ccnc(N)c2Cl)c(F)c1 [ASLAN002] | 2.04
37 | C[C@@H](Nc1cc(F)cc(F)c1)c1cc(C(=O)N(C)C)cc2c(=O)cc(N3CCOCC3)oc12 [AZD-8186] | 1.99
38 | COc1cccc2c1C(=O)c1c(O)c3c(c(O)c1C2=O)C[C@@](O)(C(=O)CO)C[C@@H]3O[C@H]1C[C@H](N)[C@@H](O)[C@H](C)O1 [epirubicin] | 1.99
39 | CC(=O)c1c(C)c2cnc(Nc3ccc(N4CCNCC4)cn3)nc2n(C2CCCC2)c1=O [palbociclib] | 1.91
40 | O=C(c1cc(Cc2n[nH]c(=O)c3ccccc23)ccc1F)N1CCN(C(=O)C2CC2)CC1 [olaparib] | 2.3
